Results from paper PMC5325384, “Novel synthetic cyclic integrin αvβ3 binding peptide ALOS4: antitumor activity in mouse melanoma models” (Oncotarget, 2016).
Where a SMILES comes first, the peptide text is derived from it. Bridges are numbered along the chain shown (N, C = ends). Where no end group is shown, it is not given here. The star is where a group is joined. FITC = O=C1OC2(c3ccc(O)cc3Oc3cc(O)ccc32)c2ccc(NC(=S)*)cc21; GABA = NCCCC(=O)O

Legend:
[1] = system: B16F10 mouse melanoma cells; assay: Immunofluorescence microscopy of cell binding and uptake; type: cell-based; details: 10 μM ALOS4-FITC, 37°C, confocal microscopy
Method: Poly-L-lysine (1 h, 37°C; cat# P8920, Sigma-Aldrich) coated slides (cat# PEZGS0816, Merck) were washed 2x with PBS (pH 7.4), 1.5×10^4 B16F10 cells per well were seeded in RPMI (10% FCS) and allowed to incubate overnight (37°C, 5% CO2). ALOS4-FITC (10 μM) was added to slide wells up to 60 min (37°C, 5% CO2), then cells were fixed in paraformaldehyde (4%, 10 min). Following PBS washes (2x) and removal of excess buffer, cells were stained with a mounting medium containing DAPI (cat# H-1500, Vector Laboratories, Burlingame, CA). Slides were imaged by confocal microscopy.

[2] = Weight of non-inoculated mice under daily treatment; type: in vivo, mouse; details: 16-week old C57BL/6, 0.3 mg/kg i.p. daily for 28 days; data not shown
integrin αvβ3 [3] = target: T1, integrin αvβ3 (Homo sapiens, UniProt P06756); assay: fluorescence competition binding assay with ALOS4-FITC
T1 chain 1: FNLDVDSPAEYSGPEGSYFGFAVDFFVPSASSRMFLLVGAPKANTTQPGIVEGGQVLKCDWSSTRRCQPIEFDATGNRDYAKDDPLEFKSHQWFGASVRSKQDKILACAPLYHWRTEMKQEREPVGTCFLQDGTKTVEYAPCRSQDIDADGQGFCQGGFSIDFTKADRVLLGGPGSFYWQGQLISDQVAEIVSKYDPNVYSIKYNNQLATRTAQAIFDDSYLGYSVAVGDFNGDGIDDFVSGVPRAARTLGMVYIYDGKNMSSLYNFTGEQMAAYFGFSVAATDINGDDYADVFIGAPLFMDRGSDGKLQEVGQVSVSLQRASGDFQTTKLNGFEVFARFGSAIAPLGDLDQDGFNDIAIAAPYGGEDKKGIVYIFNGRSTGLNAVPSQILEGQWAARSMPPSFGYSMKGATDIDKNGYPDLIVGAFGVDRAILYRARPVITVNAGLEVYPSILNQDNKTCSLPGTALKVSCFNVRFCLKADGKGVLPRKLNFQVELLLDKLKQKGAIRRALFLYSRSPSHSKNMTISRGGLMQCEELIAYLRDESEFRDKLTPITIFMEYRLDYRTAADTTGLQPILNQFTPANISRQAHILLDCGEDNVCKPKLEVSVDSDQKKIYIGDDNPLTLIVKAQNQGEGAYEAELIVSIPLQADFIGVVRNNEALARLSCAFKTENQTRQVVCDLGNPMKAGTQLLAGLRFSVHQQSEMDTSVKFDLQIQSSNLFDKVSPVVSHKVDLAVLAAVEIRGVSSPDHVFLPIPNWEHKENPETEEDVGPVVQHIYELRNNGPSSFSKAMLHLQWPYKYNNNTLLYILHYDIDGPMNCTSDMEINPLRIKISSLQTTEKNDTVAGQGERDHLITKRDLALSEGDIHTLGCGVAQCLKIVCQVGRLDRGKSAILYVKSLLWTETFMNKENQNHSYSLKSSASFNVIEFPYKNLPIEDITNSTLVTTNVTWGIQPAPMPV
T1 chain 2: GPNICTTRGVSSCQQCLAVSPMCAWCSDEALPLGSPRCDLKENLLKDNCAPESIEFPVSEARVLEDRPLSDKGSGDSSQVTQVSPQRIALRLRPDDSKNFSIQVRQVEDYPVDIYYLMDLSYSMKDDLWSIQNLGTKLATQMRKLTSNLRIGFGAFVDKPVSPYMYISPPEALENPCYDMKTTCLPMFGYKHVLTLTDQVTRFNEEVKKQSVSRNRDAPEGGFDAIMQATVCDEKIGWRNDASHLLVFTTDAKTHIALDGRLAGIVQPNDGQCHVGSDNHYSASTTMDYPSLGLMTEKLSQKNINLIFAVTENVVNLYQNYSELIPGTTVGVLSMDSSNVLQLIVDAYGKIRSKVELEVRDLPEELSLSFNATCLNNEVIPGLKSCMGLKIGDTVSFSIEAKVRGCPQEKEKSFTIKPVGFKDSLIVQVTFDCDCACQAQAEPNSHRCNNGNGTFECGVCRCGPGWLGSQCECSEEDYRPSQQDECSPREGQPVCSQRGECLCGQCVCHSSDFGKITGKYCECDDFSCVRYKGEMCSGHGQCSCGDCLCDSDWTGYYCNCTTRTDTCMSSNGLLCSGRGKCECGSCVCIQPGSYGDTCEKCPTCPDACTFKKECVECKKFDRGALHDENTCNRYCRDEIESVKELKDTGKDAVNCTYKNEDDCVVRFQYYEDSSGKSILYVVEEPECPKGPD

integrin αvβ3 [4] = target: T1, integrin αvβ3; assay: fluorescence plate saturation binding assay

CC(C)C[C@@H]1NC(=O)[C@H](CO)NC(=O)CNC(=O)[C@H](C)NC(=O)[C@H](CO)NC(=O)[C@H](CO)NC(=O)[C@@H](NC(=O)CCCNC(=S)Nc2ccc3c(c2)C(=O)OC32c3ccc(O)cc3Oc3cc(O)ccc32)CSSC[C@@H](C(=O)O)NC(=O)[C@H](Cc2ccccc2)NC1=O [ALOS4-FITC] ({FITC-GABA}-CSSAGSLFC-OH; disulfide 1-9)
association with cells, 10 min ([1]; 10 min): rapidly adheres to the cell surface | translocation into cells, 30 min ([1]; 30 min): appears to translocate quickly to the cell cytoplasm | intracellular localization, 60 min ([1]; up to 60 min): a majority of ALOS4-FITC migrated to the nuclear envelope and/or surrounding endoplasmic reticular membranes

CC(C)C[C@@H]1NC(=O)[C@H](CO)NC(=O)CNC(=O)[C@H](C)NC(=O)[C@H](CO)NC(=O)[C@H](CO)NC(=O)[C@@H](N)CSSC[C@@H](C(=O)O)NC(=O)[C@H](Cc2ccccc2)NC1=O [ALOS4] (H-CSSAGSLFC-OH; disulfide 1-9)
effect on animal weight, non-inoculated mice [2]: did not have any effect on animal weight

CSSAGSLFC (disulfide 1-9 (inferred)) [ALOS4]
Kd (integrin αvβ3 [3]): 2550 nM

{FITC-ε‑Acp}-CSSAGSLFC (disulfide 1-9 (inferred)) [ALOS4-FITC]
Kd (integrin αvβ3 [4]): 192 nM
